# Source: patent publication US20140093550A1 (priority 2012, published 2014)
# Columns and labels:
# [1] = test system: Legionella pneumophila biofilm; format: cell-based, Legionella pneumophila strain Philadelphia 1 (ATCC 33152); conditions: 7 days; nanoparticles 1 microgram/milliliter, chlorine dioxide 0.1 ppm
# [2] = test system: Legionella pneumophila biofilm; format: cell-based, Legionella pneumophila strain Philadelphia 1 (ATCC 33152); conditions: 5 days post-treatment after 7 days of treatment (Example 7 biofilms)
compound,measurement,setting,value
"[O][Cl+][O-] [chlorine dioxide biocide, chlorine dioxide]","biomass of biofilm after treatment (Example 7, FIG. 14)",[1],about 0.5 micrometers^3/micrometers^2
same,fold increase in biomass on day 12,[2],~1.25 fold
